Experimental data reported in ChEMBL document CHEMBL5038635, “Discovery of Salidroside-Derivated Glycoside Analogues as Novel Angiogenesis Agents to Treat Diabetic Hind Limb Ischemia” (J Med Chem, 2022).
Active and inactive are the calls of the source. No cut-off for these calls is given here.

Assays:
C2C12 [1] = experiment: Angiogenic activity in mouse C2C12 cells assessed as reversal of hyperglycemia-induced reduction in cell number by measuring cell proliferation measured after 12 to 36 hrs; type: functional, cell-based
[2] = biological target: Hypoxia-inducible factor 1-alpha (Mus musculus) (UniProt Q61221); experiment: Inhibition of HIF-1alpha in mouse C2C12 cells transfected with PDGF-B driven firefly luciferase gene assessed as transcriptional activity pretreated with compound for 12 hr followed by hypoxic condition for 24 hrs by dual luciferase reporter gene assay; type: cell-based; conditions: time 36.0 hrs
Sequence of Hypoxia-inducible factor 1-alpha (Mus musculus) (Q61221 whole entry): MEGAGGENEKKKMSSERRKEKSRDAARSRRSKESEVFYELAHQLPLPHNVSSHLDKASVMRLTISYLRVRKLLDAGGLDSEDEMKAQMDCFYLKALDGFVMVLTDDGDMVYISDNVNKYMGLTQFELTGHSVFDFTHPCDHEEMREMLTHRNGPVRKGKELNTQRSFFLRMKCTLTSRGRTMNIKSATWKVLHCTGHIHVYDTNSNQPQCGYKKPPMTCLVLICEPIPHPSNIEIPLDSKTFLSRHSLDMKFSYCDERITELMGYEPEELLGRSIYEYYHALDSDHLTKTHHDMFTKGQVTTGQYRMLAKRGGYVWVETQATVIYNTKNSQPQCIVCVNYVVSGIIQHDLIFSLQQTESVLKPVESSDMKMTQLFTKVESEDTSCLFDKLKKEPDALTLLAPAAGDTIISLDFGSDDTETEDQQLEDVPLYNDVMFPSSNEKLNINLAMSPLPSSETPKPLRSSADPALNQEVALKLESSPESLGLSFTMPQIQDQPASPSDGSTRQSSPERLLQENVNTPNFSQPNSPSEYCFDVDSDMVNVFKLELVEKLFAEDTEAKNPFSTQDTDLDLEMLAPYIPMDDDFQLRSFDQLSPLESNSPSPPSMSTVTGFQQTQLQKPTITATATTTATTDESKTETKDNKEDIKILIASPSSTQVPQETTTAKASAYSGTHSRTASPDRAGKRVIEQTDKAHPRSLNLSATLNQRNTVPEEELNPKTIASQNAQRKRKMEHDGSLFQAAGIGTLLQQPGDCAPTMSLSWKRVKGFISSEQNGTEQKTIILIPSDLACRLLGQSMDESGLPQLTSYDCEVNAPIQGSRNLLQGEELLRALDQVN

Mus musculus [3] = experiment: Angiogenic activity in diabetic HLI C57BL/6 mouse model assessed as increase in number of PECAM-1-positive cells at 30 mg/kg administered intramuscularly for 21 days followed by surgery by immunofluorescence analysis; type: functional, organism-based; conditions: time 21.0 day
MOVAS-1 = experiment: Induction proliferation of mouse MOVAS-1 cells assessed as increase in number of EdU-positive cells using conditioned medium of mouse C2C12 cells with silenced HIF-1alpha treated at 30 uM under hyperglycemic condition for 12 hrs followed by hypoxia for 24 hrs in presence of VEGFR inhibitor Ki8751 by EdU-incorporation assay; type: functional, cell-based; conditions: time 36.0 hrs
[4] = Microsomal stability in rat liver microsomes assessed as compound remaining after 30 min by HPLC analysis; type: ADME, Microsome; conditions: read-out: Stability
C2C12 [5] = experiment: Induction proliferation of mouse C2C12 cells with silenced HIF-1alpha at 30 uM pretreated with compound in hyperglycemia condition for 12 hr followed by hypoxia condition for 24 hrs by EdU-incorporation assay; type: functional, cell-based; conditions: time 36.0 hrs
HUVEC [6] = experiment: Angiogenesis activity in human HUVEC cells assessed as increase of cell migration using conditioned medium of mouse C2C12 cells with silenced HIF-1alpha treated at 30 uM under hyperglycemic condition for 12 hrs followed by hypoxia for 24 hrs by crystal violet dye based transwell assay; type: functional; conditions: time 36.0 hrs
[7] = Toxicity in diabetic HLI C57BL/6 mouse model assessed as effect on body weight at 15 to 100 mg/kg, im administered measured after 21 days; type: organism-based; conditions: in vivo, 504 h, dose 15-100 mg/kg, time 21 day
HUVEC [8] = experiment: Induction proliferation of human HUVEC cells assessed as increase in number of EdU-positive cells using conditioned medium of mouse C2C12 cells with silenced HIF-1alpha treated at 30 uM under hyperglycemic condition for 12 hrs followed by hypoxia for 24 hrs by EdU-incorporation assay; type: functional, cell-based; conditions: time 36.0 hrs
[9] = Octanol/Water partition coefficient, log P of the compound by HPLC-UV analysis
C2C12 [10] = experiment: Apoptotic rate in hyperglycemia-treated mouse C2C12 cells assessed as late apoptotic cells at 30 uM by AnnexinV-FITC/PI staining based flow cytometric analysis (reference value: 10.44 %); type: functional
C2C12 [11] = experiment: Apoptotic rate in hyperglycemia-treated mouse C2C12 cells assessed as viable cells at 15 uM by AnnexinV-FITC/PI staining based flow cytometric analysis (reference value: 81.90 %); type: functional; conditions: read-out: Activity
C2C12 [12] = experiment: Increase in VEGF-A protein expression level in […] mouse C2C12 cells at 30 uM by Western blot analysis; type: functional, cell-based
C2C12 [13] = experiment: Upregulation of FGF18 protein expression in mouse C2C12 cells at 30 uM by Western blot analysis; type: functional, cell-based
Mus musculus [14] = experiment: Antidiabetic activity in diabetic HLI C57BL/6 mouse model assessed as effect on blood glucose level at 30 mg/kg administered intramuscularly measured after 3 days; type: functional, organism-based; conditions: time 3.0 day
C2C12 [15] = experiment: Angiogenic activity in mouse C2C12 cells assessed as accumulation HIF-1alpha protein expression at 300 uM by Western blot analysis; type: functional, cell-based
C2C12 [16] = experiment: Apoptotic rate in hyperglycemia-treated mouse C2C12 cells assessed as viable cells at 30 uM by AnnexinV-FITC/PI staining based flow cytometric analysis (reference value: 81.90 %); type: functional; conditions: read-out: Activity
C2C12 [17] = experiment: Angiogenic activity in mouse C2C12 cells assessed as reversal of hyperglycemia-induced reduction in total cell number at 7.5 uM measured after 24 hrs by EdU-incorporation assay; type: functional, cell-based
Mus musculus [18] = experiment: Antidiabetic activity in diabetic HLI C57BL/6 mouse model assessed as PDGF-BB protein expression at 30 mg/kg, im administered for 21 days followed by surgery by Western blot analysis; type: functional, organism-based; conditions: time 21.0 day
C2C12 [19] = experiment: Upregulation of PIK3CG protein expression in mouse C2C12 cells at 30 uM by Western blot analysis; type: functional, cell-based
HUVEC [20] = experiment: Angiogenesis activity in human HUVEC cells assessed as suppression of cell migration using conditioned medium of mouse C2C12 cells treated at 30 uM under hyperglycemic condition for 12 hrs followed by hypoxia for 24 hrs by crystal violet dye based transwell assay; type: functional; conditions: time 36.0 hrs
C2C12 [21] = experiment: Induction of proliferation of hyperglycemia-induced mouse C2C12 cell apoptosis assessed as decrease in Annexin V/PI-positive cells at 15 uM pretreated with compound under hyperglycemia condition for 12 hr followed by hypoxia for 24 hrs; type: functional, cell-based; conditions: time 36.0 hrs
C2C12 [22] = experiment: Apoptotic rate in hyperglycemia-treated mouse C2C12 cells assessed as late apoptotic cells at 15 uM by AnnexinV-FITC/PI staining based flow cytometric analysis (reference value: 10.44 %); type: functional
Mus musculus [23] = experiment: Antidiabetic activity in diabetic HLI C57BL/6 mouse model assessed as increase in blood perfusion recovery at 30 mg/kg administered intramuscularly measured after 14 days; type: functional; conditions: time 14 day
HUVEC [24] = experiment: Antiangiogenesis activity in human HUVEC cells assessed as suppression of cell migration using conditioned medium of mouse C2C12 cells with silenced HIF-1alpha treated at 30 uM under hyperglycemic condition for 12 hrs followed by hypoxia for 24 hrs in presence of PDGF-BB inhibitor CP868596 by crystal violet dye based transwell assay; type: functional; conditions: time 36.0 hrs
Mus musculus [25] = experiment: Angiogenic activity in diabetic HLI C57BL/6 mouse model assessed as HIF-1alpha protein expression at 30 mg/kg, im administered for 21 days followed by surgery by Western blot analysis; type: functional, organism-based; conditions: time 21.0 day
Mus musculus [26] = experiment: Angiogenesis activity in nondiabetic HLI C57BL/6 mouse model assessed as as increase in blood perfusion recovery at 30 mg/kg, im administered for 14 days; type: functional, organism-based; conditions: time 14.0 day

Compound: COc1ccc(Cc2cccc(O[C@@H]3O[C@H](CO)[C@@H](O)[C@H](O)[C@H]3O)c2)cc1
- EC50 (C2C12 [1]): 17.3 µM
- inhibition [2]: Active
- Activity (Mus musculus [3]): Active
- Activity (MOVAS-1): inactive
- remaining at 0.5 h [4]: 79.4%
- Activity (C2C12 [5]): inactive
- Activity (HUVEC [6]): Active
- Activity [7]: Non-Toxic
- Activity (HUVEC [8]): Active
- logP [9]: 0.971
- Activity (C2C12 [10]): 3.94%
- viability at 15 µM (C2C12 [11]): 88.9%
- Activity (C2C12 [12]): inactive
- Activity (C2C12 [13]): Active
- Activity (Mus musculus [14]): Active
- inhibition (C2C12 [15]): Active
- viability at 30 µM (C2C12 [16]): 93.6%
- Activity (C2C12 [17]): Active
- Activity (Mus musculus [18]): Active
- Activity (C2C12 [19]): Active
- Activity (HUVEC [20]): Active
- Activity (C2C12 [21]): Active
- Activity (C2C12 [22]): 7.61%
- Activity (Mus musculus [23]): 70%
- Activity (HUVEC [24]): inactive
- Activity (Mus musculus [25]): Active
- Activity (Mus musculus [26]): Active
